Experimental data: patent US4238390A, “Synthesis and biological activity of [D-Thr^2, Δ^3 Pro^5 ]-enkephalinamide” (Hoffmann-La Roche Inc., priority 1979, dated 1980)
Square brackets hold non-standard residues; d marks the D form. Peptide text beside a SMILES is read from it. ΔPro = O=C(O)[C@@H]1C=CCN1

Key:
5-HTP Diarrhea = assay: Anti-diarrhea activity against 5-HTP diarrhea in CD-1 mice (comparative tests); format: in vivo, Male CD-1 mice; conditions: for anti-diarrhea activity (in words): intravenously at a dose of 132 μ moles/kg
Method: (§1) The anti-diarrhea ED50 values were determined using a computer program "ED50" based on the probit method of D. J. Finney, "Probit Analysis", Cambridge University Press, Cambridge, Great Britain (1971). The average percent inhibition obtained at each dose level of [D-Thr^2, Δ^3 Pro^5 ]-enkephalinamide was used as the response.
Male CD-1 mice were obtained from Charles River, Inc., Wilmington, Massachusetts, and weighted between 18 and 25 grams at the time of use.
All compounds with the exception of 5-HTP were dissolved in sterile 0.9% sodium chloride solution. Distilled water was used as the vehicle for 5-HTP. All compounds were administered to the mice using a constant dosage volume of 0.2 ml/20 gms of body weight.
In the experiment involving naloxone HCl, it or the vehicle were given 5 minutes prior to the administration of β-endorphin.
The amount of diarrhea produced by 5-HTP was determined as follows. Immediately following the administration of 5-HTP, the mice were individually housed in open-bottomed wire cages of a width and length of 8.5 cm and a height of 7.5 cm, resting on preweighed plastic sheets. The mice were removed from the cages 30 minutes after receiving 5-HTP, and any visible urinary discharge present on the plastic sheet was blotted dry. The sheets were then reweighed. The weight increment was considered to represent fecal weight.

[1] = system: 5-hydroxytryptophan-induced diarrhea; assay: Anti-diarrhea activity against 5-hydroxytryptophan-induced diarrhea in CF-1 mice; format: in vivo, Male CF-1 mice; conditions: for Mean Fecal Wt. (mg) + S.E.: 30 s before 10 mg/kg 5-HTP ip, 30-minute test period
Method: Male CF-1 mice were used. The mice were housed at least one week prior to use. At the time of use, the mice were 49 days of age and weighed between 21-25 grams. The mice received, intravenously, vehicle, or the indicated amounts of, [D-Thr^2, Δ^3 Pro^5 ]enkephalinamide dissolved in sterile 0.9% sodium chloride. Thirty seconds later, 10 mg/kg of DL-5-hydroxytryptophan was administered intraperitoneally using distilled water as the vehicle. The mice were then immediately placed in individual open-bottomed wire cages resting on preweighed parafilm sheets. The mice were removed from their cages 30 minutes after receiving the DL-5-hydroxytryptophan. Any fecal material adhering to the sides of the wire cage was collected and placed on the parafilm sheets, and any visible urine on the sheets was blotted dry. The sheets were weighed, and the weight increment was considered to represent the amount of feces discharged during the 30-minute test period.
as §1

Guinea Pig Ileum = assay: Opiate activity in guinea pig ileum assay; format: cell-based
Method: The opiate activity of [2-D-threonine, 5-(3,4-dehydroproline)]-enkephalinamide was measured according to the method of H. W. Kosterelitz, R. J. Lydon and H. A. Watt, British Journal of Pharmacology, volume 39 (1970), pp. 398-413. The results of the assay are shown in Table II and are compared with the opiate activities for human β-endorphin and Met-enkephaline.

[2] = cited from earlier work; for analgesic activity (in words): prior-art report
[3] = iv, 30 seconds prior to 10 mg/kg 5-HTP ip

CN1CC[C@]23c4c5ccc(O)c4O[C@H]2[C@@H](O)C=C[C@H]3[C@H]1C5.O=S(=O)(O)O [Morphine Sulfate]
prevention of 5-HTP diarrhea (in words) (5-HTP Diarrhea; intravenously or subcutaneously administered): effective in preventing this diarrhea

C[C@H](O)[C@@H](NC(=O)[C@@H](N)Cc1ccc(O)cc1)C(=O)NCC(=O)N[C@@H](Cc1ccccc1)C(=O)N1CC=C[C@H]1C(N)=O [[D-Thr^2, Δ^3 Pro^5]-enkephalinamide, [2-D-threonine, 5-(3,4-dehydroproline)]-enkephalinamide] (H-Y[dT]GF[ΔPro]-NH2)
Mean Fecal Wt. (mg) + S.E. ([1]; 1.2 μm/kg iv): 117.3 ± 11.06 mg | % Inhibition ([1]; 1.2 μm/kg iv, 5-HTP 10 mg/kg ip): 34.6% | Mean Fecal Wt. (mg) + S.E. ([1]; 3.60 μm/kg iv): 80.1 ± 22.43 mg | % Inhibition ([1]; 3.60 μm/kg iv, 5-HTP 10 mg/kg ip): 55.3% | Mean Fecal Wt. (mg) + S.E. ([1]; 12.05 μm/kg iv): 49.8 ± 14.44 mg | % Inhibition ([1]; 12.05 μm/kg iv, 5-HTP 10 mg/kg ip): 72.2% | Mean Fecal Wt. (mg) + S.E. ([1]; 24.10 μm/kg iv): 37.9 ± 12.81 mg | % Inhibition ([1]; 24.10 μm/kg iv, 5-HTP 10 mg/kg ip): 78.9% | inhibition of 5-hydroxytryptophan-induced diarrhea (in words) ([1]; by intravenous injection): potent agent | ED50 μm/kg + S.E. ([1]; iv, probit method, 5-HTP 10 mg/kg ip): 2.9 ± 1.74 μm/kg | IC50 (Guinea Pig Ileum): 9.3 nM | Relative Potency (Guinea Pig Ileum; human β-endorphin = 100, 5-(3,4-dehydroproline)]-enkephalinamide): 330 | Relative Potency (Guinea Pig Ileum; human β-endorphin = 100, listed as Tyr-D-Thr-Gly-Phe-Δ Pro-NH2): 336

Human β-Endorphin
% Inhibition of 5-HTP Diarrhea ± S.E. (5-HTP Diarrhea; 0.43 μmoles/kg iv): 25.6 ± 16.1% | % Inhibition of 5-HTP Diarrhea ± S.E. (5-HTP Diarrhea; 0.86 μmoles/kg iv): 46.6 ± 16.0% | % Inhibition of 5-HTP Diarrhea ± S.E. (5-HTP Diarrhea; 1.0 μmoles/kg sc): 35.3 ± 14.2% | % Inhibition of 5-HTP Diarrhea ± S.E. (5-HTP Diarrhea; 1.73 μmoles/kg iv): 58.3 ± 12.6% | % Inhibition of 5-HTP Diarrhea ± S.E. (5-HTP Diarrhea; 3.0 μmoles/kg sc): 51.7 ± 9.9% | % Inhibition of 5-HTP Diarrhea ± S.E. (5-HTP Diarrhea; 3.46 μmoles/kg iv): 62.2 ± 10.3% | % Inhibition of 5-HTP Diarrhea ± S.E. (5-HTP Diarrhea; 6.0 μmoles/kg sc): 61.0 ± 6.9% | % Inhibition of 5-HTP Diarrhea ± S.E. (5-HTP Diarrhea; 6.92 μmoles/kg iv): 66.4 ± 8.0% | % Inhibition of 5-HTP Diarrhea ± S.E. (5-HTP Diarrhea; 9.0 μmoles/kg sc): 70.3 ± 8.7% | % Inhibition of 5-HTP Diarrhea ± S.E. (5-HTP Diarrhea; 13.84 μmoles/kg iv): 92.2 ± 4.8% | Anti-Diarrhea ED50 ± S.E. (5-HTP Diarrhea; [3]): 1.42 ± 0.636 µmol/kg | Anti-Diarrhea ED50 ± S.E. (5-HTP Diarrhea; sc, 1 minute prior to 10 mg/kg 5-HTP ip): 2.65 ± 1.425 µmol/kg | IC50 (Guinea Pig Ileum): 31 nM | Relative Potency (Guinea Pig Ileum; human β-endorphin = 100): 100

Leu-Enkephalin
% Inhibition of 5-HTP Diarrhea ± S.E. (5-HTP Diarrhea; 66 μmoles/kg iv): 0.0 ± 13.1% | % Inhibition of 5-HTP Diarrhea ± S.E. (5-HTP Diarrhea; 132 μmoles/kg iv): 10.4 ± 7.7% | anti-diarrhea activity (in words) (5-HTP Diarrhea): only weak anti-diarrhea activity | Anti-Diarrhea ED50 ± S.E. (5-HTP Diarrhea; [3]): > 132 µmol/kg

Met-Enkephalin
% Inhibition of 5-HTP Diarrhea ± S.E. (5-HTP Diarrhea; 66 μmoles/kg iv): 21.3 ± 15.9% | % Inhibition of 5-HTP Diarrhea ± S.E. (5-HTP Diarrhea; 132 μmoles/kg iv): 23.7 ± 9.6% | anti-diarrhea activity (in words) (5-HTP Diarrhea): only weak anti-diarrhea activity | Anti-Diarrhea ED50 ± S.E. (5-HTP Diarrhea; [3]): > 132 µmol/kg | IC50 (Guinea Pig Ileum): 124 nM | Relative Potency (Guinea Pig Ileum; human β-endorphin = 100): 25

[D-Ala^2, MePhe^4, MetO^5 -ol] enkephalin
oral activity (in words) ([2]; Roemer et al., Nature 268, 547 (1977)): orally active | analgesic activity (in words) [2]: most potent analgesic of the group

[D-Met^2, Pro^5 ]-enkephalinamide [D-Met^2 -Pro^5 -Enkephalin-Amide]
% Inhibition of 5-HTP Diarrhea ± S.E. (5-HTP Diarrhea; 0.20 μmoles/kg iv): 1.7 ± 13.2% | % Inhibition of 5-HTP Diarrhea ± S.E. (5-HTP Diarrhea; 0.60 μmoles/kg iv): 32.3 ± 13.4% | % Inhibition of 5-HTP Diarrhea ± S.E. (5-HTP Diarrhea; 1.20 μmoles/kg iv): 36.9 ± 11.0% | % Inhibition of 5-HTP Diarrhea ± S.E. (5-HTP Diarrhea; 2.40 μmoles/kg iv): 66.0 ± 7.6% | % Inhibition of 5-HTP Diarrhea ± S.E. (5-HTP Diarrhea; 4.30 μmoles/kg iv): 88.6 ± 7.7% | Anti-Diarrhea ED50 ± S.E. (5-HTP Diarrhea; [3]): 1.38 ± 0.310 µmol/kg | analgesic activity (in words) [2]: potent analgesic agent

[D-Met^2, Thz^5 ]-enkephalinamide
analgesic activity (in words) [2]: potent analgesic agents

[D-Thr^2, Thz^5 ]-enkephalinamide
analgesic activity (in words) [2]: potent analgesic agents
